Biological target: IDO1 (Homo sapiens, UniProt P14902)
Experiment: IDO1 Cellular Assay in HeLa Cells Stimulated with IFNγ
Assay type: cell-based
Settings: read-out: HeLa Cell Potency, IC50

IDO1, sequence (P14902 whole entry): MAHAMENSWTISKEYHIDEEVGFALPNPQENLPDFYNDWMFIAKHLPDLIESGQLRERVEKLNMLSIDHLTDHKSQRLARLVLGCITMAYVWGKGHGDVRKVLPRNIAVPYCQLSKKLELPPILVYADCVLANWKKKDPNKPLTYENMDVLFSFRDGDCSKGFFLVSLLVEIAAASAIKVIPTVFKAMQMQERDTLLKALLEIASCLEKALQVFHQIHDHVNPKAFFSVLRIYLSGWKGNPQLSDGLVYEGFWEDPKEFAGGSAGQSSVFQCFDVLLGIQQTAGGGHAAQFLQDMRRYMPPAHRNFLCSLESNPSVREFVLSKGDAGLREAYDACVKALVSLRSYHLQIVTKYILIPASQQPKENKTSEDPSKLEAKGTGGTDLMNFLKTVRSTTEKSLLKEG

Row | Compound | IC50 [nM]
1 | CC(=O)NC1CCN(C(=O)c2nn(CC(=O)N3CCN(c4cccc(C)c4Cl)CC3)c3c2CCCC3)CC1 [Example 453, N-(1-(1-(2-(4-(2-chloro-3-methylphenyl)piperazin-1-yl)-2-oxoethyl)-4,5,6,7-tetra hydro-1H-indazole-3-carbonyl)piperidin-4-yl) acetamide] | 0.59
2 | Cc1cccc(N2CCN(C(=O)Cn3nc(C(=O)N4CCC(O)(CO)CC4)c4c3CCCC4)CC2)c1C [Example 455, 1-(4-(2,3-dimethylphenyl)piperazin-1-yl)-2-(3-(4-hydroxy-4-(hydroxymethyl)piperidine-1-carbonyl)-4,5,6,7-tetrahydro-1H-indazol-1-yl)ethanone] | 3.32
3 | Cc1c(F)ccc(N2CCN(C(=O)Cn3nc(C(=O)N4CCC(F)(CO)CC4)c4c3CCCC4)CC2)c1C [Example 458, 1-(4-(4-fluoro-2,3-dimethylphenyl)piperazin-1-yl)-2-(3-(4-fluoro-4-(hydroxy-methyl)piperidine-1-carbonyl)-4,5,6,7-tetrahydro-1H-indazol-1-yl)ethanone] | 0.95
4 | Cc1c(F)ccc(N2CCN(C(=O)Cn3nc(C(=O)N4CC[C@H](O)[C@@H](F)C4)c4c3CCCC4)CC2)c1C [Example 459, 1-(4-(4-fluoro-2,3-dimethylphenyl)piperazin-1-yl)-2-(3-((3S,4S)-3-fluoro-4-hydroxypiperidine-1-carbonyl)-4,5,6,7-tetrahydro-1H-indazol-1-yl)ethanone] | 1.17
5 | Cc1cccc(N2CCN(C(=O)Cn3nc(C(=O)N4CCC(O)CC4(C)C)c4c3CCCC4)CC2)c1C (centres unmarked) [Example 461, 1-(4-(2,3-dimethylphenyl)piperazin-piperazin-1-yl)-2-(3-(4-hydroxy-2,2-dimethylpiperidine-1-carbonyl)-4,5,6,7-tetrahydro-1H-indazol-1-yl)ethanone] | 1.25
6 | Cc1cccc(N2CCN(C(=O)Cn3nc(C(=O)N4CCC(F)(CO)CC4)c4c3CCCC4)CC2)c1C [Example 467, 1-(4-(2,3-dimethylphenyl)piperazin-1-yl)-2-(3-(4-fluoro-4-(hydroxymethyl)piperidine-1-carbonyl)-4,5,6,7-tetrahydro-1H-indazol-1-yl)ethanone] | 1.87
7 | Cc1cccc(N2CCN(C(=O)Cn3nc(C(=O)N4CCC(NC(=O)OC(C)(C)C)CC4)c4c3CCCC4)CC2)c1C [Example 469, tert-butyl (1-(1-(2-(4-(2,3-dimethylphenyl)piperazin-1-yl)-2-oxoethyl)-4,5,6,7-tetrahydro-1H-indazole-3-carbonyl)piperidin-4-yl) carbamate] | 2.48
8 | Cc1cccc(N2CCN(C(=O)Cn3nc(C(=O)N4CCO[C@H](CO)C4)c4c3CCCC4)CC2)c1C [Example 474, (S)-1-(4-(2,3-dimethylphenyl)piperazin-1-yl)-2-(3-(2-(hydroxymethyl)morpholine-4-carbonyl)-4,5,6,7-tetrahydro-1H-indazol-1-yl)ethanone] | 4.21
9 | Cc1cccc(N2CCN(C(=O)Cn3nc(C(=O)N4CCC(O)(CF)CC4)c4c3CCC4)CC2)c1C [Example 481, 1-(4-(2,3-dimethylphenyl)piperazin-1-yl)-2-(3-(4-(fluoromethyl)-4-hydroxypiperidine-1-carbonyl)-5,6-dihydrocyclopenta[c]pyrazol-1(4H)-yl) ethanone] | 10.6
10 | Cc1c(F)cccc1N1CCN(C(=O)Cn2nc(C(=O)N3CCC(O)CC3)c3c2CCC3)CC1 [Example 483, 1-(4-(3-fluoro-2-methylphenyl)piperazin-1-yl)-2-(3-(4-hydroxypiperidine-1-carbonyl)-5,6-dihydrocyclopenta[c]pyrazol-1(4H)-yl) ethanone] | 41.6
11 | Cc1cccc(N2CCN(C(=O)Cn3nc(C(=O)N4CCC(O)(CF)C4)c4c3CCC4)CC2)c1C (centres unmarked) [Example 485, 1-(4-(2,3-dimethylphenyl)piperazin-1-yl)-2-(3-(3-(fluoromethyl)-3-hydroxypyrrolidine-1-carbonyl)-5,6-dihydro-cyclopenta[c]pyrazol-1(4H)-yl)ethanone] | 47.5

From patent US12264134B2 (Merck Sharp & Dohme LLC, priority 2018, dated 2025)
